Each structure is given as a SMILES string.

The subject of this experiment is Human leukemia HL-60 cells endogenously expressing BLT1 and BLT2 receptors. The experiment can be described thus: Ca2+ flux assay for LTB4 antagonist assay (HL-60 FLIPR). The class given is cell-based. Conditions: retinoic acid induced HL-60 cells, inhibition of LTB4-induced Ca2+ flux, 30 min preincubation; read-out: LTB4 antagonism (HL-60 FLIPR). As to the method: Assay of Compounds for Inhibition of LTB4 Activity
Ca^2+Flux Assay for LTB4 Antagonist Assay
Human leukemia HL-60 cells endogenously expressing BLT1 and BLT2 receptors were cultured in RPMI-1640 medium supplemented with 20% fetal bovine serum, 2 mM glutamine, 100 U/ml penicillin and 100 ug/ml streptomycin.
Seventy two hours prior to experiment cells are counted using ViaCount reagent, centrifuged and resuspended at 2.0×10^5 cells/ml density with the complete growth media containing 1 μM Retinoic Acid (Sigma).
On a day of the experiment loading buffer (Calcium-3 Assay Kit, Molecular Devices) was prepared by dissolving the contents of one vial (Express Kit) into 500 ml Hank's Balanced Salt Solution containing 20 mM HEPES and 5 mM probenecid. Equal volume of the loading buffer was mixed with the replacement buffer (Hank's Balanced Salt Solution containing 20 mM HEPES, 0.05% BSA and 5 mM probenecid). Retinoic Acid induced HL-60 cells were counted using ViaCount reagent, centrifuged and resuspended at 2.0×10^6 cells/ml density with the loading buffer/replacement buffer, dispensed into 384 well black/clear microplates (Falcon) (25 μl/well) and placed in a 37° C./5% CO2 incubator for 1 hour.
During the incubation, test compounds were prepared at 6× the desired concentration in HBSS/20 mM HEPES/0.05% BSA as well as LTB4 (Biomol) was prepared at 2.2× concentration in HBSS/20 mM HEPES/0.5% BSA buffer.
After the incubation, both the cell and compound plates were brought to the FLIPR and 5 μl of the diluted compounds were transferred to the cell plates by the FLIPR. Plates were then incubated for 30 min at room temperature. After the ½ hour incubation, plates were returned to the FLIPR and 25 μl of 2.2×LTB4 was added to the cell plates. During the assay, fluorescence readings were taken simultaneously from all 384 wells of the cell plate every 1.5 seconds. Five readings were taken to establish a stable baseline, then 25 μl (LTB4) of sample was rapidly and simultaneously added to each well of the cell plate. The fluorescence was continuously monitored before, during and after sample addition for a total elapsed time of 100 seconds. Responses (increase in peak fluorescence) in each well following agonist addition was determined. The initial fluorescence reading from each well, prior to ligand stimulation, was used a zero baseline value for the data from that well. The responses are expressed as % inhibition of the neutral control (neural control: wells that received buffer plus DMSO but no test compound).
For orientation: Calcium flux is commonly read through the fluorescence of an indicator in the cells.
Regarding `CCOc1cc(OCCCCCCc2cccc(OCCCC(=O)O)c2CCC(=O)O)cc(-c2ccc3cc[nH]c3c2)c1` [Example 55, 4-[2-(2-Carboxy-ethyl)-3-{6-[3-ethoxy-5-(1H-indol-6-yl)-phenoxy]-hexyl}-phenoxy]-butyric acid], the IC50 was 6.69 nM. For `CN(C)Cc1cc(OCCCCCCc2cccc(OCCCC(=O)O)c2CCC(=O)O)cc(-c2cccc(F)c2)c1` [Example 36, 4-{2-(2-Carboxy-ethyl)-3-[6-(5-dimethylaminomethyl-3′-fluoro-biphenyl-3-yloxy)-hexyl]-phenoxy}-butyric acid], the IC50 stood at 0.14 nM.

`O=C(O)CCCOc1cccc(CCCCCCOc2cc(CO)cc(-c3ccc4c(c3)OCO4)c2)c1CCC(=O)O` [Example 1, 4-[3-[6-(3-Benzo[1,3]dioxol-5-yl-5-hydroxymethyl-phenoxy)-hexyl]-2-(2-carboxy-ethyl)-phenoxy]-butyric acid]: the IC50 stood at 3.1 nM.

`CC(C)C(=O)c1cc(OCCCCCCc2cccc(OCCCC(=O)O)c2CCC(=O)O)cc(-c2ccc3c(c2)OCO3)c1` [Example 70, 4-[3-[6-(3-Benzo[1,3]dioxol-5-yl-5-isobutyryl-phenoxy)-hexyl]-2-(2-carboxy-ethyl)-phenoxy]-butyric acid]: the IC50 is 0.31 nM. Next, `CCOCc1cc(OCCCCCCc2cccc(OCCCC(=O)O)c2CCC(=O)O)cc(-c2ccc(C(F)(F)F)cc2)c1` [Example 27, 4-{2-(2-Carboxy-ethyl)-3-[6-(5-ethoxymethyl-4′-trifluoromethyl-biphenyl-3-yloxy)-hexyl]-phenoxy}-butyric acid]: 6.24 nM. Turning to `CN(C)Cc1cc(OCCCCCCc2cccc(OCCCC(=O)O)c2CCC(=O)O)cc(-c2ccc(S(C)(=O)=O)cc2)c1` [Example 38, 4-{2-(2-Carboxy-ethyl)-3-[6-(5-dimethylaminomethyl-4′-methanesulfonyl-biphenyl-3-yloxy)-hexyl]-phenoxy}-butyric acid], the IC50 came out at 2.22 nM. Turning to `CCOc1cc(OCCCCCCc2cccc(OCCCC(=O)O)c2CCC(=O)O)cc(-c2ccc3c(c2)OC(F)(F)O3)c1` [Example 57, 4-(2-(2-Carboxy-ethyl)-3-{6-[3-(2,2-difluoro-benzo[1,3]dioxol-5-yl)-5-ethoxy-phenoxy]-hexyl}-phenoxy)-butyric acid], the IC50 came out at 1.2 nM. Turning to `CCOc1cc(OCCCCCCc2cccc(OCCCC(=O)O)c2CCC(=O)O)cc(-c2ccc(Cl)cc2)c1` [Example 49, 4-[2-(2-Carboxy-ethyl)-3-[6-(4′-chloro-5-ethoxy-biphenyl-3-yloxy)-hexyl]-phenoxy]-butyric acid], the IC50 stood at 6.05 nM. Then `O=C(O)CCCOc1cccc(CCCCCCOc2cc(CO)cc(-c3ccc(Cl)cc3)c2)c1CCC(=O)O` [Example 5, 4-{2-(2-Carboxy-ethyl)-3-[6-(4′-chloro-5-hydroxymethyl-biphenyl-3-yloxy)-hexyl]-phenoxy}-butyric acid], with 43.1 nM; and `CCOCc1cc(OCCCCCCc2cccc(OCCCC(=O)O)c2CCC(=O)O)cc(-c2ccc(F)cc2)c1` [Example 26, 4-{2-(2-Carboxy-ethyl)-3-[6-(5-ethoxymethyl-4′-fluoro-biphenyl-3-yloxy)-hexyl]-phenoxy}-butyric acid], with 11.9 nM. Take `COCc1cc(OCCCCCCc2cccc(OCCCC(=O)O)c2CCC(=O)O)cc(-c2ccc(OC(F)(F)F)cc2)c1` [Example 20, 4-{2-(2-Carboxy-ethyl)-3-[6-(5-methoxymethyl-4′-trifluoromethoxy-biphenyl-3-yloxy)-hexyl]-phenoxy}-butyric acid]: the IC50 was 15.1 nM. With `CCOc1cc(OCCCCCCc2cccc(OCCCC(=O)O)c2CCC(=O)O)cc(-c2ccsc2)c1` [Example 45, 4-[2-(2-Carboxy-ethyl)-3-[6-(3-ethoxy-5-thiophen-3-yl-phenoxy)-hexyl]-phenoxy]-butyric acid], the IC50 came to 0.4 nM. Next, `CN(C)Cc1cc(OCCCCCCc2cccc(OCCCC(=O)O)c2CCC(=O)O)cc(-c2ccc(F)cc2)c1` [Example 33, 4-{2-(2-Carboxy-ethyl)-3-[6-(5-dimethylaminomethyl-4′-fluoro-biphenyl-3-yloxy)-hexyl]-phenoxy}-butyric acid]: 0.11 nM.
